This passage reports IC50 results from ChEMBL document CHEMBL1147817, “Two novel furan derivatives from Phellinus linteus with anti-complement activity” (Bioorg Med Chem Lett, 2006).

This experiment can be described thus: Inhibition of classical pathway of the complement system. The format is functional, Homo sapiens.
`CO[C@H]1O[C@@H](C(O)CO)/C(=C/c2ccc(CO)o2)C1=O` (stereo partly drawn) [PHELLINUSFURAN A] yielded a half-inhibitory concentration (IC50) of 33.6 µM.

`O=C(/C=C/c1ccc(O)c(O)c1)O[C@H](Cc1ccc(O)c(O)c1)C(=O)O` [ROSMARINIC ACID] came in with a half-maximal inhibitory concentration (IC50) of 180 µM.

As for `CO[C@H]1O[C@H](C(O)CO)/C(=C/c2ccc(CO)o2)C1=O` (stereo partly drawn) [PHELLINUSFURAN B], the IC50 came to 33.7 µM.

The IC50 is the point on the concentration scale where inhibition reaches its midpoint. Low values mean inhibition by little substance, high ones a need for much substance.
